From patent US12528840B2, “Transcription active complex targeting cancer drug from viral protein sequence” (The Regents of the University of California, priority 2020, dated 2026)

System: BCBL-1 cells
Details: MTT, compared to Mut d1-1 control peptide
Source text: FIG. 8. Amino acid conservation among different gamma-herpesviral transactivator proteins. […] DE; D substitute to glutamic acid, DS: D substituted for serine. ST; serine substituted for threonine (marked in red).
Amino acid sequence alignment identified homologous protein sequences in other gamma-herpesvirus protein sequence (The Top table in FIG. 8a, also shown in FIG. 2). Based on their alignment, “non-natural” protein sequences were generated by substituting specific amino acids (The peptides are: Wt d1-1, DS 3-1, DE 3-1, and Mut d1-1 (control peptide) from the top to the bottom in the Bottom Table in FIG. 8a). Those four peptides were used in MTT assays in FIG. 8b to examine the effects on cell growth of BCBL-1 […] effusion lymphoma (PEL) cell line. Also tested are three D-amino acid substitutions first two amino acids and c-terminal amino acid (ST d3-1), in comparison with one D-amino acid peptide (N-terminus) (Wt d3-1).

Row | Substance | killing of BCBL-1 cells in vitro
1 | d-Arg-KKRR-Ornithine-RRR-B-alanine-LSSILQGLYQL-d-Asp-d Glu [DE 3-1] | killed BCBL-1 cells in vitro at similar efficacies
2 | d-Arg-KKRR-Ornithine-RRR-B-alanine-LSSILQGLYQL-d-Asp-d Ser [DS 3-1] | killed BCBL-1 cells in vitro at similar efficacies
3 | d-Arg-KKRR-Ornithine-RRR-B-alanine-LSSILQGLYQL-d-Asp-d Thr [Wt d3-1] | killed BCBL-1 cells in vitro at similar efficacies
4 | d-Arg-KKRR-Ornithine-RRR-B-alanine-LSTILQGLYQL-d-Asp-d Thr [ST d3-1] | killed BCBL-1 cells in vitro at similar efficacies
5 | d-Arg-KKRR-Ornithine-RRR-β-alanine-LSSILQGLYQLDT [Wt d1-1] | killed BCBL-1 cells in vitro at similar efficacies
